Measured values as given in patent publication US6737383B1, “Herbicidal oxadiazolidines” (priority 1999, dated 2004).

Tests used:
green foxtail = test: Test E green foxtail; type: in vivo, Setaria viridis; conditions: Preemergence
winter barley = test: Test E winter barley; type: in vivo, Hordeum vulgare; conditions: Preemergence
corn = test: Test B pre/postemergence corn; type: in vivo, Zea mays
In short: (§1)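 Test chemicals in a non-phytotoxic solvent mixture with surfactant were sprayed preemergence onto planted seeds and postemergence onto plants 2 to 18 cm tall (1- to 4-leaf stage). After twelve to sixteen days in a greenhouse, injury was visually rated against untreated controls from 0 (no effect) to 10 (complete control).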

winter wheat [1] = test: Test E winter wheat; type: in vivo, Triticum aestivum; conditions: Preemergence
Italian ryegrass = test: Test E Italian ryegrass; type: in vivo, Lolium multiflorum; conditions: Preemergence
crabgrass = test: Test B pre/postemergence crabgrass; type: in vivo, Digitaria sanguinalis
In short: as §1

winter wheat [2] = test: Test E winter wheat; type: in vivo, Triticum aestivum; conditions: Postemergence
In short: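 Greenhouse test: compounds in non-phytotoxic solvent with surfactant; for postemergence, sprayed on plants at 1- to 4-leaf stage grown in 60:40 sandy loam/potting mix. Injury rated visually against untreated controls after about 21 to 28 days.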

wild oat = test: Test E wild oat; type: in vivo, Avena fatua; conditions: Preemergence
sugar beet = test: Test B pre/postemergence sugar beet; type: in vivo, Beta vulgaris
In short: as §1

blackgrass = test: Test E blackgrass; type: in vivo, Alopecurus myosuroides; conditions: Preemergence
rice = test: Test B flood test rice; type: in vivo, Oryza sativa
In short: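 Flood test on plants grown to the 2-leaf stage; treated plants kept in greenhouse twelve to sixteen days, then visually rated against controls on a 0 (no effect) to 10 (complete control) scale.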

[3] = Rate 500 g/ha, 0 to 100 scale (0 no effect, 100 complete control)
[4] = Rate 1000 g/ha, 0 to 100 scale, 0 no effect, 100 complete control
[5] = Postemergence, Rate 125 g/ha, scale 0 to 10, 0 is no effect, 10 is complete control
[6] = Preemergence, Rate 62 g/ha, scale of 0 to 10 where 0 is no effect and 10 is complete control
[7] = Preemergence, Rate 250 g/ha, scale of 0 to 10 where 0 is no effect and 10 is complete control
[8] = Preemergence, Rate 500 g/ha, scale of 0 to 10 where 0 is no effect and 10 is complete control
[9] = Rate 62 g/ha, Postemergence, scale of 0 to 10 where 0 is no effect and 10 is complete control
[10] = Rate 500 g/ha, Postemergence, scale 0 to 10, 0 no effect, 10 complete control
[11] = Rate 1000 g/ha, 0 to 100 scale where 0 is no effect and 100 is complete control
[12] = Rate 500 g/ha, 0 to 100 scale, 0 is no effect, 100 is complete control
[13] = Rate 250 g/ha, Pre-emergence, flood-test species, scale 0 to 10, 0 is no effect, 10 is complete control
[14] = Rate 2000 g/ha, 0 to 100 scale, 0 is no effect and 100 is complete control
[15] = Rate 500 g/ha, 0 to 100 scale where 0 is no effect and 100 is complete control
[16] = Postemergence, Rate 125 g/ha, scale of 0 to 10 where 0 is no effect and 10 is complete control
[17] = Postemergence, Rate 1000 g/ha, scale 0 to 10 (0 no effect, 10 complete control)
[18] = Preemergence, Rate 125 g/ha, 0 is no effect, 10 is complete control
[19] = Preemergence, Rate 250 g/ha, scale 0 to 10, 0 is no effect, 10 is complete control
[20] = Preemergence, Rate 500 g/ha, scale 0 to 10 (0 no effect, 10 complete control)
[21] = Rate 250 g/ha, Postemergence, scale 0 to 10, 0 is no effect, 10 is complete control
[22] = Rate 500 g/ha, Postemergence, scale 0 to 10
[23] = Rate 1000 g/ha, Preemergence, scale 0 to 10 (0 no effect, 10 complete control)
[24] = Rate 2000 g/ha, Postemergence, scale 0 to 10
[25] = Rate 2000 g/ha, Preemergence, scale 0 to 10
[26] = Postemergence (flood test species), Rate 125 g/ha, scale of 0 to 10 where 0 is no effect and 10 is complete control
[27] = Rate 62 g/ha, Postemergence section, flood test species, scale of 0 to 10 where 0 is no effect and 10 is complete control
[28] = Rate 250 g/ha, Postemergence (flood test), scale 0 to 10, 0 is no effect, 10 is complete control
[29] = Rate 125 g/ha, 0 to 100 scale (0 no effect, 100 complete control)
[30] = Preemergence, Rate 62 g/ha, scale 0 to 10 (0 no effect, 10 complete control)

CC(C)N(C(=O)n1oc(=O)n(C2CCCCCC2)c1=O)c1ccc(F)cc1 [Compound 340]
3: Crabgrass plant response rating (0 to 10 scale) (crabgrass; Preemergence, Rate 125 g/ha)
100: Plant response rating, Green foxtail (green foxtail; [4])
50: Plant response rating, Barley (winter) (winter barley; Rate 250 g/ha, 0 to 100 scale, 0 no effect, 100 complete control) | Plant response rating, Barley (winter) (winter barley; [4]) | Plant response rating, Wheat (winter) (winter wheat [1]; [3]) | Plant response rating, Wild oat (wild oat; Rate 250 g/ha, 0 to 100 scale) | Plant response rating, Wild oat (wild oat; [3]) | Plant response rating, Blackgrass (blackgrass; Rate 250 g/ha, 0 to 100 scale)
40: Plant response rating, Barley (winter) (winter barley; [3]) | Plant response rating, Wheat (winter) (winter wheat [1]; Rate 250 g/ha, 0 to 100 scale)
55: Plant response rating, I. Ryegrass (Italian ryegrass; Rate 250 g/ha, 0 to 100 scale) | Plant response rating, Wheat (winter) (winter wheat [2]; [12])
2: Plant response rating, Crabgrass (crabgrass; [10]) | Plant response rating, Sugarbeets (sugar beet; [5])
0: Plant response rating, Corn (corn; [5]) | Corn plant response rating (corn; [6]) | Corn plant response rating (0 to 10 scale) (corn; Preemergence, Rate 125 g/ha) | Corn plant response rating (corn; [7]) | Corn plant response rating (corn; [8]) | Corn plant response rating (corn; [9]) | Plant response rating, Corn (corn; [10]) | Plant response rating, Crabgrass (crabgrass; [5]) | Crabgrass plant response rating (crabgrass; [6]) | Crabgrass plant response rating (crabgrass; [9]) | Sugarbeets plant response rating (sugar beet; [6]) | Sugarbeets plant response rating (0 to 10 scale) (sugar beet; Preemergence, Rate 125 g/ha) | Sugarbeets plant response rating (sugar beet; [7]) | Sugarbeets plant response rating (sugar beet; [8]) | Sugarbeets plant response rating (sugar beet; [9]) | Rice plant response rating (rice; Rate 62 g/ha, headed Pre-emergence (flood test species), scale 0 to 10 (0 no effect, 10 complete control)) | Rice plant response rating (rice; Rate 125 g/ha, Pre-emergence, flood test species, scale 0 to 10 where 0 is no effect and 10 is complete control) | Rice plant response rating (rice; [13]) | Rice plant response rating (rice; Rate 500 g/ha, Pre-emergence, flood test species, scale 0 to 10 (0 no effect, 10 complete control))
9: Crabgrass plant response rating (crabgrass; [8])
85: Plant response rating, Blackgrass (blackgrass; [4])
65: Plant response rating, I. Ryegrass (Italian ryegrass; [4])
6: Plant response rating, Sugarbeets (sugar beet; [10])
8: Crabgrass plant response rating (crabgrass; [7])
60: Plant response rating, Green foxtail (green foxtail; [3]) | Plant response rating, Wheat (winter) (winter wheat [1]; [4]) | Plant response rating, I. Ryegrass (Italian ryegrass; [3]) | Plant response rating, Wheat (winter) (winter wheat [2]; [11]) | Plant response rating, Wild oat (wild oat; [4]) | Plant response rating, Blackgrass (blackgrass; [3])
30: Plant response rating, Green foxtail (green foxtail; Rate 250 g/ha, 0 to 100 scale) | Plant response rating, Wheat (winter) (winter wheat [2]; Rate 250 g/ha, 0 to 100 scale, 0 is no effect, 100 is complete control)

CC(C)N(C(=O)n1oc(=O)n(N(C)c2ccccc2)c1=O)c1ccc(F)cc1 [Compound 177]
0: Corn plant response rating (corn; [16]) | Corn plant response rating (corn; [17]) | Corn plant response rating (corn; [6]) | Corn plant response rating (0 to 10 scale) (corn; [18]) | Corn plant response rating (corn; [19]) | Corn plant response rating (corn; [20]) | Corn plant response rating (corn; [9]) | Plant response rating, Corn (corn; [21]) | Corn plant response rating (corn; [22]) | Plant response rating, Corn (corn; [23]) | Corn plant response rating (corn; [24]) | Corn plant response rating (corn; [25]) | Crabgrass plant response rating (crabgrass; [16]) | Crabgrass plant response rating (crabgrass; [17]) | Crabgrass plant response rating (crabgrass; [9]) | Crabgrass plant response rating (crabgrass; [24]) | Sugarbeets plant response rating (sugar beet; [16]) | Sugarbeets plant response rating (sugar beet; [17]) | Sugarbeets plant response rating (sugar beet; [6]) | Sugarbeets plant response rating (0 to 10 scale) (sugar beet; [18]) | Sugarbeets plant response rating (sugar beet; [19]) | Sugarbeets plant response rating (sugar beet; [20]) | Sugarbeets plant response rating (sugar beet; [9]) | Plant response rating, Sugarbeets (sugar beet; [21]) | Sugarbeets plant response rating (sugar beet; [22]) | Plant response rating, Sugarbeets (sugar beet; [23]) | Sugarbeets plant response rating (sugar beet; [24]) | Sugarbeets plant response rating (sugar beet; [25]) | Rice plant response rating (rice; [26]) | Rice plant response rating (rice; [27]) | Plant response rating, Rice (rice; [28]) | Rice plant response rating (rice; [13]) | Plant response rating, Rice (rice; Rate 500 g/ha, headed Pre-emergence (flood test species), scale 0 to 10 (0 no effect, 10 complete control)) | Rice plant response rating (rice; Rate 500 g/ha, listed under Postemergence (flood test species), scale 0 to 10) | Rice plant response rating (rice; Rate 1000 g/ha, Pre-emergence (as headed), scale 0 to 10) | Rice plant response rating (rice; Rate 2000 g/ha, Pre-emergence (as headed), scale 0 to 10)
70: Plant response rating, Barley (winter) (winter barley; [11]) | Plant response rating, Wheat (winter) (winter wheat [1]; [14]) | Plant response rating, Wheat (winter) (winter wheat [1]; [15]) | Plant response rating, Wheat (winter) (winter wheat [2]; [14]) | Plant response rating, Wheat (winter) (winter wheat [2]; [12]) | Plant response rating, Wild oat (wild oat; [14])
65: Plant response rating, I. Ryegrass (Italian ryegrass; [14]) | Plant response rating, Wheat (winter) (winter wheat [2]; Rate 1000 g/ha, 0 to 100 scale, 0 is no effect and 100 is complete control)
100: Plant response rating, Green foxtail (green foxtail; [14])
85: Plant response rating, Green foxtail (green foxtail; [11])
2: Plant response rating, Crabgrass (crabgrass; [21])
8: Plant response rating, Crabgrass (crabgrass; [23])
80: Plant response rating, Barley (winter) (winter barley; [14]) | Plant response rating, Wild oat (wild oat; [15]) | Plant response rating, Wild oat (wild oat; [11])
60: Plant response rating, Green foxtail (green foxtail; [15]) | Plant response rating, Barley (winter) (winter barley; [15]) | Plant response rating, I. Ryegrass (Italian ryegrass; [15]) | Plant response rating, I. Ryegrass (Italian ryegrass; [11]) | Plant response rating, Blackgrass (blackgrass; [14]) | Plant response rating, Blackgrass (blackgrass; [15]) | Plant response rating, Blackgrass (blackgrass; [11])
1: Crabgrass plant response rating (crabgrass; [6])
3: Crabgrass plant response rating (crabgrass; [22])
6: Crabgrass plant response rating (0 to 10 scale) (crabgrass; [18])
50: Plant response rating, Wheat (winter) (winter wheat [1]; [11])
9: Crabgrass plant response rating (crabgrass; [19]) | Crabgrass plant response rating (crabgrass; [20]) | Crabgrass plant response rating (crabgrass; [25])

CC(C)N(C(=O)n1oc(=O)n(C)c1=O)c1ccc(Cl)cc1 [Compound 137]
50: Green foxtail plant response rating (0 to 100 scale) (green foxtail; Rate 250 g/ha) | I. Ryegrass plant response rating (0 to 100 scale) (Italian ryegrass; Rate 250 g/ha)
8: Crabgrass plant response rating (crabgrass; [16]) | Crabgrass plant response rating (crabgrass; [30])
7: Crabgrass plant response rating (crabgrass; [9])
20: Plant response rating, Barley (winter) (winter barley; [29]) | Barley (winter) plant response rating (0 to 100 scale) (winter barley; Rate 250 g/ha) | Plant response rating, Wheat (winter) (winter wheat [1]; [29]) | Plant response rating, I. Ryegrass (Italian ryegrass; [29]) | Wheat (winter) plant response rating (winter wheat [2]; Rate 250 g/ha, 0 to 100 scale where 0 is no effect and 100 is complete control) | Plant response rating, Wild oat (wild oat; [29]) | Plant response rating, Blackgrass (blackgrass; [29])
5: Corn plant response rating (corn; [22]) | Plant response rating, Sugarbeets (sugar beet; [21])
9: Plant response rating, Crabgrass (crabgrass; [21]) | Crabgrass plant response rating (crabgrass; [22])
4: Corn plant response rating (corn; [20])
0: Corn plant response rating (corn; [16]) | Corn plant response rating (corn; [30]) | Corn plant response rating (0 to 10 scale) (corn; [18]) | Corn plant response rating (corn; [19]) | Corn plant response rating (corn; [9]) | Rice plant response rating (rice; [26]) | Rice plant response rating (rice; Rate 31 g/ha, Postemergence section (flood test species), scale 0 to 10) | Rice plant response rating (rice; [27]) | Plant response rating, Rice (rice; [28])
15: Plant response rating, Green foxtail (green foxtail; [29])
30: Wheat (winter) plant response rating (0 to 100 scale) (winter wheat [1]; Rate 250 g/ha) | Blackgrass plant response rating (0 to 100 scale) (blackgrass; Rate 250 g/ha)
6: Sugarbeets plant response rating (sugar beet; [30]) | Sugarbeets plant response rating (sugar beet; [22])
10: Crabgrass plant response rating (0 to 10 scale) (crabgrass; [18]) | Crabgrass plant response rating (crabgrass; [19]) | Crabgrass plant response rating (crabgrass; [20]) | Plant response rating, Wheat (winter) (winter wheat [2]; Rate 125 g/ha, 0 to 100 scale) | Wild oat plant response rating (0 to 100 scale) (wild oat; Rate 250 g/ha) | Sugarbeets plant response rating (0 to 10 scale) (sugar beet; [18]) | Sugarbeets plant response rating (sugar beet; [19]) | Sugarbeets plant response rating (sugar beet; [20])
3: Plant response rating, Corn (corn; [21]) | Sugarbeets plant response rating (sugar beet; [16]) | Sugarbeets plant response rating (sugar beet; [9])
